Tests used:
Type in all cases: cell-based
AGS cell strain [1] = experiment: Cell growth test (CCK-8 assay) after transfection of BART miRNA mimics; details: mimic 10 nM, 72 hours after transfection, relative to scrambled control (=1), n=9
Protocol: An AGS cell strain (Korean Cell Line Bank), which is a stomach cancer cell strain, was cultured in an RPMI1640 (Gibco) culture medium including 10% fetal bovine serum. Mature type synthesized BART miRNAs were transfected to the AGS cell strain by using G-fectin (Genolution) according to a protocol of the manufacture.
To investigate the effect of individual EBV BART miRNAs on the AGS cell strain, the synthesized miRNAs were transfected to the AGS cell strain and, after 72 hours, cells were counted by CCK-8 assay.
Immediately after the AGS cell strain, which is an EBV-negative cell strain, was divided into 96-well plate having 1×10^3 cells/well, a synthesized miRNA (10 nM) was transfected by using G-fectin. After the transfection, according to the experimental objective, the cells were cultured at 37° C. in an incubator, and then CCK-8 was divided among the wells by allocating 10 μl of CCK-8 to each well and the resulting mixture was cultured in an incubator at 37° C. for two hours. Then, the light absorbance was measured with an ELISA measuring instrument.
By the method described in Example 3, miR-BART5-5p mimic or miR-BART15-3p mimic (10 nM) were transfected to the AGS cell strain, and the effect thereof on cell growth was investigated over time.
miR-BART5-5p, miR-BART15-3p, and miR-BART20-3p were transfected to the AGS cell strain (1×10^3 cells/well) in a concentration of 1, 3, 10, and 30 nM, and the effect on cell growth was investigated. Immediately after the AGS cell strain was divided into a 96-well plate such that 1×10^3 AGS cells were allocated to each well, a synthesized miRNA was transfected by using G-fectin. Seventy two hours after the transfection, CCK-8 was divided among the wells by allocating 10 μl of CCK-8 to each well, and the resulting mixture was cultured at 37° C. in an incubator for two hours.

AGS cell strain [2] = experiment: Effect on cell cycle (propidium iodide staining, FACS, sub G1); details: mimic 10 nM, 10 uM 5-FU 24 h after transfection, then 48 hours, relative to scrambled control (=1)
Protocol: The AGS cells were divided into a 96-well plate such that 2×10^5 AGS cells were allocated to each well, and synthesized miRNAs (10 nM) were transfected and cultured at 37° C. in an incubator. Twenty four hours after the transfection, 10 uM of 5-FU, which is an anti-cancer agent, was treated in one case or not treated in another case, and then the resulting mixture was cultured in an incubator at 37° C. for 48 hours. The cells were detached by using Trypsin-EDTA and washed with PBS two times.
Immediately after the AGS cell strains, which are EBV-negative cell strains, were divided into a 6-well plate such that 2×10^5 AGS cells were allocated to each well, a synthesized miRNA (10 nM) was transfected by using G-fectin and cultured at 37° C. in an incubator. Twenty four hours after the transfection, 10 uM of 5-FU was treated and the resulting mixture was cultured at 37° C. in an incubator for 48 hours. The cells were detached by using Trypsin-EDTA and washed with PBS two times. Afterwards, DNA was stained by propidium iodide staining and the ratio of cells where cell cycle was changed was investigated by FACS.

AGS cell strain [3] = experiment: Measurement of apoptosis (Annexin V staining, FACS); details: for Relative Apoptotic cell: AGS, mimic 10 nM, 10 uM 5-FU 24 h after transfection, then 48 hours, Annexin V, relative to scrambled control (=1), n=9; for effect on cell growth and apoptosis (summary statement): mimics transfected to AGS, tumor cell strain not infected with EBV
Protocol: Immediately after the AGS cell strain, which is an EBV-negative cell strain, was divided was divided into a 6-well plate such that 2×10^5 AGS cells were allocated to each well, a synthesized miRNA (10 nM) was transfected by using G-fectin and the resulting mixture was cultured at 37 t in an incubatorTwenty four hours after the transfection, 10 uM of 5-FU was treated and the resulting mixture was cultured in an incubator at 37° C. for 48 hours. The cells were detached by using Trypsin-EDTA and washed with PBS two times. Afterwards, the cells were treated with a PE Annexin V Apoptosis Detection Kit and the changed ratio of apoptotic cell was investigated by FACS (FIG. 7).
Immediately after the AGS cell strain, which is an EBV-negative cell strain, is divided into a 6-well plate such that 2×10^5 AGS cells were allocated to each well, a synthesized miRNA (10 nM) was transfected by using G-fectin and the resulting mixture was cultured at 37° C. Twenty four hours after the transfection, 10 uM of 5-FU, which is an anti-cancer agent, was treated and the resulting mixture was cultured in an incubator at 37° C. for 48 hours. The cells were detached by using Trypsin-EDTA and washed with PBS two times. Afterwards, the cells were treated with a PE Annexin V Apoptosis Detection Kit and the ratio of cells where apoptosis took place was measured by FACS.

Substance	Relative Cell Growth (AGS cell strain [1])	Relative Sub G1 (AGS cell strain [2])	Relative Apoptotic cell (AGS cell strain [3])	other results
BART7-3p: EBV BART miRNA mimic, double stranded RNA; sense SEQ NO: 43, antisense SEQ NO: 44 (sense CAUCAUAGUCCAGUGUCCAGGG; antisense CCCUGGACACUGGACUAUGAUG; chemistry not given here)	1.156	0.9393	1.107	
BART7-5p: EBV BART miRNA mimic, double stranded RNA; sense SEQ NO: 41, antisense SEQ NO: 42 (sense CCUGGACCUUGACUAUGAAACA; antisense UGUUUCAUAGUCAAGGUCCAGG; chemistry not given here)	1.539	0.9918	1.097	Relative Apoptotic cell (AGS cell strain [3]; listed as 7-5p): significantly higher; effect on cell growth and apoptosis (summary statement) (AGS cell strain [3]): inhibit cell growth and promote apoptosis
BART8-3p: EBV BART miRNA mimic, double stranded RNA; sense SEQ NO: 47, antisense SEQ NO: 48 (sense GUCACAAUCUAUGGGGUCGUAGA; antisense UCUACGACCCCAUAGAUUGUGAC; chemistry not given here)	1.396	0.9616	1.072	
BART8-5p: EBV BART miRNA mimic, double stranded RNA; sense SEQ NO: 45, antisense SEQ NO: 46 (sense UACGGUUUCCUAGAUUGUACAG; antisense CUGUACAAUCUAGGAAACCGUA; chemistry not given here)	1.448	1.013	0.9757	
BART9-3p: EBV BART miRNA mimic, double stranded RNA; sense SEQ NO: 51, antisense SEQ NO: 52 (sense UAACACUUCAUGGGUCCCGUAGU; antisense ACUACGGGACCCAUGAAGUGUUA; chemistry not given here)	1.569	0.8669	0.7948	
BART9-5p: EBV BART miRNA mimic, double stranded RNA; sense SEQ NO: 49, antisense SEQ NO: 50 (sense UACUGGACCCUGAAUUGGAAAC; antisense GUUUCCAAUUCAGGGUCCAGUA; chemistry not given here)	1.482	1.005	1.25	Relative Apoptotic cell (AGS cell strain [3]; listed as 9-5p): significantly higher; effect on cell growth and apoptosis (summary statement) (AGS cell strain [3]): inhibit cell growth and promote apoptosis
BART10-3p: EBV BART miRNA mimic, double stranded RNA; sense SEQ NO: 59, antisense SEQ NO: 60 (sense UACAUAACCAUGGAGUUGGCUGU; antisense ACAGCCAACUCCAUGGUUAUGUA; chemistry not given here)	1.591	0.8394	0.8971	
BART10-5p: EBV BART miRNA mimic, double stranded RNA; sense SEQ NO: 57, antisense SEQ NO: 58 (sense GCCACCUCUUUGGUUCUGUACA; antisense UGUACAGAACCAAAGAGGUGGC; chemistry not given here)	1.646	0.833	0.8373	
BART11-3p: EBV BART miRNA mimic, double stranded RNA; probably sense SEQ NO: 63, antisense SEQ NO: 64 (printed as BART11-5p) (sense ACGCACACCAGGCUGACUGCC; antisense GGCAGUCAGCCUGGUGUGCGU; chemistry not given here)	0.9459	1.128	1.058	
BART11-5p: EBV BART miRNA mimic, double stranded RNA; sense SEQ NO: 61, antisense SEQ NO: 62 (sense UCAGACAGUUUGGUGCGCUAGUUG; antisense CAACUAGCGCACCAAACUGUCUGA; chemistry not given here)	1.08	1.081	1.006	
BART12-3p: EBV BART miRNA mimic, double stranded RNA; sense SEQ NO: 67, antisense SEQ NO: 68 (sense UCCUGUGGUGUUUGGUGUGGUU; antisense AACCACACCAAACACCACAGGA; chemistry not given here)	1.102	1.317	1.084	Relative Sub G1 (AGS cell strain [2]; listed as 12-3p): increased
BART12-5p: EBV BART miRNA mimic, double stranded RNA; sense SEQ NO: 65, antisense SEQ NO: 66 (sense ACCCGCCCAUCACCACCGGAC; antisense GUCCGGUGGUGAUGGGCGGGU; chemistry not given here)	1.159	1.135	0.9458	Relative Sub G1 (AGS cell strain [2]; listed as 12-5p): increased
BART13-3p: EBV BART miRNA mimic, double stranded RNA; sense SEQ NO: 79, antisense SEQ NO: 80 (sense UGUAACUUGCCAGGGACGGCUGA; antisense UCAGCCGUCCCUGGCAAGUUACA; chemistry not given here)	1.255	0.9813	1.187	Relative Apoptotic cell (AGS cell strain [3]; listed as 13-3p): significantly higher; effect on cell growth and apoptosis (summary statement) (AGS cell strain [3]): inhibit cell growth and promote apoptosis
BART13-5p: EBV BART miRNA mimic, double stranded RNA; sense SEQ NO: 77, antisense SEQ NO: 78 (sense AACCGGCUCGUGGCUCGUACAG; antisense CUGUACGAGCCACGAGCCGGUU; chemistry not given here)	1.326	1.178	1.077	Relative Sub G1 (AGS cell strain [2]; listed as 13-5p): increased; Relative Apoptotic cell (AGS cell strain [3]; listed as 13-5p): significantly higher; effect on cell growth and apoptosis (summary statement) (AGS cell strain [3]): inhibit cell growth and promote apoptosis

Source: US9243247B2, “Composition for promoting apoptosis or inhibiting cell growth, comprising epstein-barr virus microrna” (Catholic University Industry Academic Cooperation Foundation, priority 2011, dated 2016)
